According to the supplement of paper PMC9103864:

Legend:
[1] = tested on: BMSC (primary human bone marrow mesenchymal stromal cells); assay: drug sensitivity score (DSS); higher = more sensitive
[2] = tested on: BMSC (primary human bone marrow mesenchymal stromal cells); assay: absolute EC50 for viability; higher = less sensitive

| Structure (SMILES) | drug sensitivity score [1] | absolute EC50 for viability [2] [nM] |
| --- | --- | --- |
| CC[C@H](NC(=O)[C@H](C)NC)C(=O)N1C[C@@H](O)C[C@H]1Cc1c(-c2[nH]c3cc(F)ccc3c2C[C@@H]2C[C@H](O)CN2C(=O)[C@H](CC)NC(=O)[C@H](C)NC)[nH]c2cc(F)ccc12 [Birinapant] | 0 | > 1000 |
| CC1(C)OCCn2c1nc1c(N3CCOCC3)nc(-c3cnc(N)nc3)nc12 [GDC-0084] | 13.2 | 644 |
| C[C@@H]1C=C2C(=O)O[C@@H]3CC[C@H](C1)[C@]23O [Galiellalactone] | 1.3 | > 25000 |
| O=C(CCCCCCC(=O)Nc1ccccc1)NO [Vorinostat] | 5.6 | 2940 |
| Nc1nc(OCc2cc(Br)cs2)c2[nH]cnc2n1 [Lomeguatrib] | 0 | > 10000 |
| CNC(=O)c1ccc2cc([C@@]3(O)CCn4cncc43)ccc2c1 [Orteronel] | 0 | > 10000 |
| CNC(=O)c1cccc2cc(Oc3ccnc4cc(OCC5(N)CC5)c(OC)cc34)ccc12 [Lucitanib] | 9 | > 10000 |
| CCc1cc2c(cc1N1CCC(N3CCOCC3)CC1)C(C)(C)c1[nH]c3cc(C#N)ccc3c1C2=O [Alectinib] | 0 | > 1000 |
| CO[C@@H](C)Cn1c(=O)n(C)c2cnc3ccc(-c4cncc(C(C)(C)O)c4)cc3c21 | 10.5 | 257 |
| CC(C)C[C@H](NC(=O)CNC(=O)c1cc(Cl)ccc1Cl)B(O)O [Ixazomib] | 0.4 | > 1000 |
| Nc1ncnc2c1nc(Cl)n2[C@@H]1O[C@H](CO)[C@@H](O)[C@H]1O [8-chloro-adenosine] | 10.9 | 5350 |
| C[C@]1(O)C[C@@H](c2nc(-c3ccc4ccc(-c5ccccc5)nc4c3)c3c(N)nccn32)C1 [Linsitinib] | 2.9 | > 10000 |
| COc1cc([C@@H]2c3cc4c(cc3[C@@H](O[C@@H]3O[C@@H]5CO[C@@H](c6cccs6)O[C@H]5[C@H](O)[C@H]3O)[C@H]3COC(=O)[C@H]23)OCO4)cc(OC)c1O [Teniposide] | 0 | > 10000 |
| C[C@H](Nc1ncnc2nc[nH]c12)c1cc2cccc(Cl)c2c(=O)n1-c1ccccc1 [Duvelisib] | 0.6 | > 500 |
| CC[C@H](Nc1ncnc2[nH]cnc12)c1nc2cccc(F)c2c(=O)n1-c1ccccc1 [Idelalisib] | 2.7 | > 10000 |
| CCS(=O)(=O)N1CC(CC#N)(n2cc(-c3ncnc4[nH]ccc34)cn2)C1 [Baricitinib] | 0.1 | > 2500 |
| Cc1cccc(-c2nn3c(c2-c2ccnc4ccc(C(N)=O)cc24)CCC3)n1 [Galunisertib] | 0 | > 1000 |
| COc1ccccc1S(=O)(=O)Nc1ccc2c(c1)CN(C)C(=O)N2 [PFI-1] | 1.9 | > 30000 |
| CCCOc1ccn2c(C(C)=O)cc(-c3ccccc3S(C)(=O)=O)c2c1 [GSK2801] | 0 | > 10000 |

| Structure (SMILES) | drug sensitivity score [1] | absolute EC50 for viability [2] [nM] |
| --- | --- | --- |
| CC(C)(C)c1cc(NC(=O)Nc2ccc(-c3cn4c(n3)sc3cc(OCCN5CCOCC5)ccc34)cc2)no1 [Quizartinib] | 2.2 | > 1000 |
| COc1cc2nccc(Oc3ccc(NC(=O)Nc4cc(C)on4)c(Cl)c3)c2cc1OC [Tivozanib] | 7.6 | > 10000 |
| CC(C)(C#N)c1cc(Cn2cncn2)cc(C(C)(C)C#N)c1 [Anastrozole] | 0 | > 10000 |
| CCn1cc(-c2ccnc3[nH]c(-c4cccc(CN(C)C)c4)cc23)c(-c2ccc(NC(=O)N(C)C)cc2)n1 | 1.5 | > 1000 |
| Cc1c(N)nc([C@H](CC(N)=O)NC[C@H](N)C(N)=O)nc1C(=O)N[C@H](C(=O)N[C@H](C)[C@@H](O)[C@H](C)C(=O)N[C@H](C(=O)NCCc1nc(-c2nc(C(=O)NCCC[S+](C)C)cs2)cs1)[C@@H](C)O)[C@@H](OC1OC(CO)C(O)C(O)C1OC1OC(CO)C(O)C(OC(N)=O)C1O)c1cnc[nH]1 (some centres not stated) [Bleomycin] | 2.5 | > 10000 |
| CCn1c(-c2nonc2N)nc2cnc(Oc3cccc(NC(=O)c4ccc(OCCN5CCOCC5)cc4)c3)cc21 | 7.3 | > 10000 |
| CN(Cc1cnc2nc(N)nc(N)c2n1)c1ccc(C(=O)N[C@@H](CCC(=O)O)C(=O)O)cc1 [Methotrexate] | 4.7 | > 5000 |
| CCN(CC)CCN(Cc1ccc(-c2ccc(C(F)(F)F)cc2)cc1)C(=O)Cn1c(SCc2ccc(F)cc2)nc(=O)c2c1CCC2 [Darapladib] | 0 | > 1000 |
| O=C1CCc2c(Oc3ccc4c(c3)[C@@H]3[C@H](O4)[C@H]3c3nc4cc(C(F)(F)F)ccc4[nH]3)ccnc2N1 [BGB-283] | 4.2 | > 10000 |
| CCOC(=O)CCNc1cc(N2CCc3ccccc3CC2)nc(-c2ccccn2)n1 [GSK-J4] | 2.8 | 73000 |
| COc1cc2c(N3CCN(C(=O)Nc4ccc(OC(C)C)cc4)CC3)ncnc2cc1OCCCN1CCCCC1 [Tandutinib] | 2.7 | > 1000 |
| O=c1sn(-c2cccc3ccccc23)c(=O)n1Cc1ccccc1 [Tideglusib] | 0 | > 3000 |
| CC(C)(C)C[C@@H]1N[C@@H](C(=O)N[C@H]2CC[C@H](O)CC2)[C@H](c2cccc(Cl)c2F)[C@]12C(=O)Nc1cc(Cl)ccc12 | 10.5 | 2490 |
| CC1=C(/C=C/C(C)=C/C=C/C(C)=C/C(=O)O)C(C)(C)CCC1 [Tretinoin] | 0 | > 10000 |
| CCNC(=O)C[C@@H]1N=C(c2ccc(Cl)cc2)c2cc(OC)ccc2-n2c(C)nnc21 [Molibresib] | 3.3 | > 10000 |
| CN(C)Cc1ccc(S(=O)(=O)n2ccc(/C=C/C(=O)NO)c2)cc1 [Resminostat] | 6 | 2630 |
| C[C@]12C=CC(=O)C=C1CC[C@@H]1[C@@H]2[C@@H](O)C[C@@]2(C)[C@H]1CC[C@]2(O)C(=O)CO [Prednisolone] | 0 | > 10000 |
| CCn1c(C(=O)N(C2CC2)C2CC2)cc2c3c(ncn3C)c(Nc3cc(C)n(C)n3)nc21 | 1 | > 10000 |
| COc1c(C)cnc(Cn2cnc3c(Cl)nc(N)nc32)c1C [BIIB021] | 12 | 449 |

| Structure (SMILES) | drug sensitivity score [1] | absolute EC50 for viability [2] [nM] |
| --- | --- | --- |
| CNC(=O)c1ccc(C)c(-n2c(C)cc(OCc3ccc(F)cc3F)c(Br)c2=O)c1 | 0 | > 1000 |
| C[C@@H](NC(=O)c1ncnc(N)c1Cl)c1ncc(C(=O)Nc2cc(C(F)(F)F)c(Cl)cn2)s1 [TAK-580] | 5.7 | > 10000 |
| CC(C)Nc1cc(-c2c[nH]c(C(=O)N[C@H](CO)c3cccc(Cl)c3)c2)c(Cl)cn1 [Ulixertinib] | 2.4 | > 10000 |
| Cc1cc(Nc2nc(N[C@@H](C)c3ncc(F)cn3)ncc2Cl)[nH]n1 [AZD1480] | 0.6 | > 1000 |
| Cc1sc2c(c1C)C(c1ccc(Cl)cc1)=N[C@@H](CC(=O)Nc1ccc(OCCOCCOCCOCCNc3cccc4c3C(=O)N(C3CCC(=O)NC3=O)C4=O)cc1)c1nnc(C)n1-2 (some centres not stated) [ARV-825] | 10.1 | 36 |
| Cc1cc(Nc2cc(CN3CCOCC3)c3nc(C)c(Cc4ccc(Cl)cc4F)n3n2)n[nH]1 [Gandotinib] | 6.3 | 2490 |
| COc1ccc(Cn2ccc3ccc(C(=O)NO)cc32)cc1 | 0 | 9930 |
| CO[C@H]1C[C@@H]2CC[C@@H](C)[C@@](O)(O2)C(=O)C(=O)N2CCCC[C@H]2C(=O)O[C@H]([C@H](C)C[C@@H]2CC[C@@H](O)[C@H](OC)C2)CC(=O)[C@H](C)/C=C(\C)[C@@H](O)[C@@H](OC)C(=O)[C@H](C)C[C@H](C)/C=C/C=C/C=C/1C [Sirolimus] | 4.2 | > 100 |
| CCN1CCN(c2ccc(Nc3cc(N(C)C(=O)Nc4c(Cl)c(OC)cc(OC)c4Cl)ncn3)cc2)CC1 [Infigratinib] | 0 | > 1000 |
| COC[C@H](NC(=O)c1cnc(C)s1)C(=O)N[C@@H](COC)C(=O)N[C@@H](Cc1ccccc1)C(=O)[C@@]1(C)CO1 [Oprozomib] | 10 | 304 |
| Cc1ncc(-c2ccnc(Nc3ccc(S(C)(=O)=O)cc3)n2)n1C(C)C [AZD-5438] | 1.5 | > 10000 |
| CCCCCOC(=O)Nc1nc(=O)n([C@@H]2O[C@H](C)[C@@H](O)[C@H]2O)cc1F [Capecitabine] | 0 | > 10000 |
| CC(C)N(CCCNC(=O)Nc1ccc(C(C)(C)C)cc1)C[C@H]1O[C@@H](n2cc(Br)c3c(N)ncnc32)[C@H](O)[C@@H]1O [SGC0946] | 2.1 | > 10000 |
| NS(=O)(=O)NCCNc1nonc1/C(=N/O)Nc1ccc(F)c(Br)c1 [Epacadostat] | 0 | > 10000 |
| FC(F)c1nc2ccccc2n1-c1nc(N2CCOCC2)nc(N2CCOCC2)n1 [ZSTK474] | 7.2 | > 10000 |
| COc1ccc(C[C@H](NC(=O)[C@H](C)NC(=O)CN2CCOCC2)C(=O)N[C@@H](Cc2ccccc2)C(=O)C2(C)CO2)cc1 (stereo in doubt) [ONX-0914] | 16.1 | 391 |
| Cc1nc2cccc(N)c2c(=O)n1C1CCC(=O)NC1=O (configuration not stated) [CC122] | 0 | 9930 |
| CN(C)Cc1c(C(=O)NCCOc2ccc(C(=O)NO)cc2)oc2ccccc12 [Abexinostat] | 10.1 | 1280 |
